According to patent US20230338340A1, “Methods of Treating Cystic Fibrosis” (The Trustees of Dartmouth College, priority 2020, published 2023):

Assays:
CAL PDZ [1] = target: T1, CAL PDZ (Homo sapiens, UniProt Q9HD26); assay: CALP fluorescence polarization (FP) competition assay, HTS format with dose-response validation; assay type: binding; design: Inhibitory activity CALP at 100 μM: unit not given here; conditions: for IC50: read-out: Inhibitory activity CALP IC50
T1 construct: Recombinant CAL PDZ was expressed and purified in E. coli as previously described; made in house; host or cells: E. coli
Procedure: (§1) CALP and/or Dab2 inhibition assays were performed in biochemical “mix-and-measure” format in order to evaluate the effects on activation and inhibition of CALP and/or Dab2 by the compounds of the disclosure. Brief assay procedure is provided below. Unless otherwise specified, all of the compounds were obtained from commercial sources.
CALP inhibitors were identified by fluorescence polarization (FP) competition assays in high-throughput screening (HTS) format. Recombinant CAL PDZ was expressed and purified in E. coli as previously described (Amacher et al., Acta Cyst. (2011) F67, 600-603), and dialyzed into FP storage buffer (25 mM Tris pH 8.5, 150 mM NaCl, 0.1 mM TCEP, and 0.02% sodium azide). A fluorescent reporter peptide, NPG32, was purchased commercially with the following sequence: F*-[…] (F* denotes a N-terminal fluorescein group coupled via an aminohexanoic acid linker). Initial single-dose HTS was performed with libraries comprising ˜52,000 compounds (FAST Lab—Novartis Institutes for BioMedical Research). First, 25 nL of 5 mM small-molecule was transferred to 1536-well Grenier plates. 3 μL of 3.708 μM CALP in FP buffer (FP storage buffer supplemented with […]) was added, and plates were incubated for 10 min. Next, 3 μL of 60 nM NPG32 (in FP buffer) was added. Final reaction volumes were 6 μL and contained 1.854 μM CALP, 30 nM NPG32, and 20.83 μM small-molecule. […] Plates were incubated for 30 minutes at room temperature and anisotropy was measured (480 nm excitation wavelength and 535 nm emission wavelength). […] Compounds were validated in triplicate using 8-point dilution series in half-log increments with two orthogonal assays: FRET and TMR-based FP assay. For the FRET assay, a cerulean-CALP fusion protein (Cer-CALP) was expressed and purified as previously described (Zhao et al., 2018). A fluorescent reporter peptide, PRC34, was purchased commercially with the following sequence: TMR*-[…] (TMR* denotes a N-terminal tetramethylrhodamine group coupled via an aminohexanoic acid linker). First, 40 nL of compound was transferred to the plates. 5 μL of 16.632 μM Cer-CALP was added, and plates were incubated for 30 min. Next, 5 μL of 16.632 μM PRC34 was added, and plates were incubated for 30 min. Final reaction volumes were 10 μL and contained 8.316 μM CALP, 8.316 μM […], and variable concentrations of small-molecule. Negative controls contained equivalent amounts of DMSO (0.4%), while positive controls contained 100 μM NPG30 (sequence: […]). Plates were incubated for 30 min, and emission at 475 nm and 575 nm was measured following excitation at 430 nm. TMR FP assays were conducted as described for the FITC-based assay with the following exceptions: TMR was used as the reporter peptide, the final CALP concentration was 11.952 μM, and the positive control used was 100 μM NPG30.

Human-Dab2-DH = target: T2, Human-Dab2-DH (Homo sapiens, UniProt P98082); assay: Dab2 FP competition assay via HTS; assay type: binding; conditions: read-out: Inhibitory activity Dab2 IC50
T2 construct: fused on or other part: N-terminal 10xHis tag with a 3C protease site, cleaved off unless otherwise indicated
T2 sequence (P98082 33-178 limits assumed): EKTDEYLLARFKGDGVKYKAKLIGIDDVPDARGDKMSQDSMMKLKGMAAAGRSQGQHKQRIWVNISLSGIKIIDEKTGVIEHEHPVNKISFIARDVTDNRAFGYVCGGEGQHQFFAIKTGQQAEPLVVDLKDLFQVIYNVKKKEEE
Procedure: as §1
Dab-2 inhibitors were also identified by FP competition assays via HTS. Human-Dab2-DH, residues 31-191 (Uniprot: P98082), and trDab2-DH (residues 33-178) was subcloned into the pET16b vector via PCR utilizing the restriction enzyme sites of Xhol and BamHI. The construct was designed with a 3C protease cleavage site directly upstream and in-frame with the protein coding sequence. DNA was sequence verified. (0.1 mM) IPTG was used to induce protein expression in E. coli BL21(DE3)RIL cells, after reaching an O.D. of […]. […] Followed by 3C cleavage of the 10×His tag (unless otherwise indicated), and a second nickel affinity column to remove the 3C protease and excess tag. Dab2-DH was dialyzed into FP storage buffer (25 mM Tris pH 8.0, 150 mM NaCl, 0.1 mM TCEP, and 0.02% sodium azide). Fluorescent reporter peptides, TIVR*STA02 (TMR*-[…]) and TMR*STA03 (TMR*-[…]), were purchased commercially with the following sequence where TMR* denotes a N-terminal tetramethylrhodamine group coupled via an aminohexanoic acid linker. An unlabled positive control peptide STA02 ([…]) was also purchased commercially. Inhibitors of Dab2-DH were identified from a variety of sources with various protocols outlined below.
For screens conducted at the Novartis Institutes for BioMedical Research FAST Lab, single-dose HTS assays were performed with libraries comprising ˜52,000 compounds at 20 μM doses. Experiments were conducted as described for screens at the University of Pittsburgh Lab and Drug Discovery Institute, except that Dab2-DH, not trDab2-DH, was used as the protein source.
For screens conducted at the Broad Institute, compound transfers were done using a 384-well pin tool equipped with 100 nL hydrophobic surface coated pins. 100 nL of DMSO (negative control), STA02 (positive control), or library compounds were dispensed into 20 μL of protein (200 nM) and reporter (F*-STA02, 30 nM) mixture with 0.1 mg/ml mouse IgG and 0.5 mM Thesit. Final concentrations in the mixture were DMSO ([…]), STA02 (20 μM), and compounds (18 μM). Plates were incubated for 35-45 minutes before measuring polarization. Compounds were tested in duplicates on two separate plates. Positive and negative controls were included in each individual plate.
For experiments conducted at the University of Pittsburgh Lab and Drug Discovery Institute, single-dose HTS assays were performed with a library containing ˜220,000 compounds. On the day of screening, a master mix of equal parts trDab2-DH (900 nM) and TMP-STA03 (90 nM) was prepared. Compound plates containing assay ready 2 μL aliquots of a 1 mM stock solution in DMSO were thawed, reconstituted in FP buffer to a concentration of 30 μM in 3% DMSO, and five μL transferred to low volume assay plates using a Perkin Elmer MDT. Ten μL of master mix were added by a Microflo bulk liquid dispenser (Biotek, Winooski, VT) and processed as described in the general protocol above. Each plate contained 32 wells of positive (Dab2-DH+probe+DMSO) and negative (Dab2-DH+probe +10 μM STA03) controls. Plates were read at 1.5-h and 4-h on the Envision multilabel reader.

wild-type CFTR = assay: Cell-surface expression of wild-type CFTR in WT-CFBE cells; assay type: cell-based; conditions: 1 μM and 5 μM, no correctors or potentiators
Procedure: The effect of example 8 on cell-surface expression of wild-type CFTR was also tested in the absence of correctors or potentiators. Two doses (1 μM and 5 μM) of example 8 were applied to wild-type cystic fibrosis bronchial epithelial (WT-CFBE) cells and the abundance of WT-CFTR cells in the plasma membrane was quantified.

CAL PDZ [2] = target: T1, CAL PDZ; assay: MALDI-TOF detection of covalent modification of CAL PDZ; assay type: binding
Procedure: (§2) Following incubation of 50 μM protein with 75 μM of example 8, the molecular weight of the samples was determined by MALDI (unlabeled CALP molecular weight: 9464±15 Da; labeled CALP molecular weight: 9623±9 Da).

CAL PDZ [3] = target: T1, CAL PDZ; assay: FP assay of peptide binding by CAL PDZ pre-labeled with compound (apparent KD)
Source text: Next, to probe the biochemical effect example 8 exerts on CAL PDZ-peptide binding, CAL PDZ was pre-labeled with example 8 and performed fluorescence polarization (FP) assays to determine apparent KD values for both unlabeled and labeled CAL PDZ.

CAL PDZC319A = target: T3, CAL PDZC319A (Homo sapiens, UniProt Q9HD26, C327A); assay: MALDI-TOF detection of adduct on point mutant CAL PDZ C319A; assay type: binding; conditions: only cysteine mutated to alanine
T3 construct: point mutant CAL PDZC319A (where the only cysteine residue is mutated to alanine)
Procedure: as §2

CALP = target: T4, CALP (Homo sapiens, UniProt Q9HD26); assay: Dose-dependent CALP inhibition by FP competition assay, large-volume format; assay type: binding; conditions: one experimental replicate
T4 construct: Recombinant CAL PDZ was expressed and purified in E. coli as previously described; made in house; host or cells: E. coli
Procedure: The following compounds of Table 2 were obtained from commercial sources, and evaluated in fluorescence polarization (FP) competition assay.
Specifically, dose-dependent CALP inhibition of compounds of examples 36-41 was assessed by FP competition assays. Experiments were conducted similarly to HTS assays described above but in large-volume format. Briefly, CALP was expressed and purified as previously described (Amacher et al., 2011). A fluorescently labeled peptide, NPG32, was commercially obtained (sequence: F*-[…] where F* denotes a N-terminal fluorescein group coupled via an aminohexanoic acid linker). CALP was dialyzed into FP storage buffer (25 mM Tris pH 8.5, 150 mM NaCl, 0.1 mM TCEP, and 0.02% sodium azide). CALP was diluted into FP buffer (FP storage buffer supplemented with 0.1 mg/mL IgG and 30 μM thesit) containing 31.58 nM NPG32. The protein/reporter solution was aliquoted into 384-well plates with each well containing 19 μL of the mixture. Twelve-point titrations (2-fold serial dilutions) of the test compounds were prepared in 25% DMSO. To each well, 1 μL of compound was added. […] Plates were incubated at room temperature for 30 min before anisotropy was measured. […] Except for Examples 37-38, the reported potency for all compounds was calculated by averaging three experimental replicates.

Row | SMILES | Inhibitory activity CALP at 100 μM (CAL PDZ [1]) | IC50 (CAL PDZ [1]) | IC50 (Human-Dab2-DH) | other results
1 | O=C(O[C@@H]1Cc2c(O)cc(O)cc2O[C@@H]1c1cc(=O)c(O)c2c(O)c(O)cc([C@H]3Oc4cc(O)cc(O)c4C[C@H]3O)c2c1)c1cc(O)c(O)c(O)c1 [Example 1, (2R,3R)-5,7-dihydroxy-2-(3,4,5-trihydroxy-6-oxo-1-((2R,3R)-3,5,7-trihydroxychroman-2-yl)-6H-benzo[7]annulen-8-yl)chroman-3-yl 3,4,5-trihydroxybenzoate] | −65.53 | 11.3 µM | 2.45 µM | 
2 | CC1COC2C3=C(C(=O)C=CC3=O)C3OC(=O)C4CCC5C1CCC25C43 (stereo not drawn) [Example 2, 6-methyl-2a,2a^1,3,4,4a,5,6,7,8a,12b-decahydro-2H-4a^1,5-ethanofuro[4′,3′,2′:4,10]anthra[9,1-bc]oxepine-2,9,12-trione] | −67.12 | 1.3 µM | 0.22 µM | 
3 | O=C1c2c(O)c(Cl)cc3c2[C@@]2(Oc4cc(Cl)c(O)c5c4[C@]3(O2)[C@@H]2O[C@@H]2C5=O)[C@@H]2O[C@H]12 [Example 3, (1aR,1bS,5aS,6aR,6bS,11aS)-3,9-dichloro-4,10-dihydroxy-1a,5a,6a,11a-tetrahydro-5H,11H-1b,6b-epoxyoxireno[2′,3′:2,3]naphtho[1,8-bc]oxireno[2′,3′:2,3]naphtho[1,8-ef]oxepine-5,11-dione] | −80.85 | 25.3 µM | 0.26 µM | 
4 | Cc1c(O)c(O)c(O)c(C=O)c1C=O [Example 4, 3,4,5-trihydroxy-6-methylphthalaldehyde] | −94.09 | 10.2 µM | 3.42 µM | 
5 | O=c1[nH]c2ccc(S(=O)(=O)Nc3cccc4ccccc34)cc2[nH]1 [Example 37, N-(naphthalen-1-yl)-2-oxo-2,3-dihydro-1H-benzo[d]imidazole-5-sulfonamide] |  |  |  | CALP binding in FP competition (CALP): absence of binding
6 | O=c1[nH]c2ccc(S(=O)(=O)Nc3ccc(O)cc3)cc2[nH]1 [Example 38, N-(4-hydroxyphenyl)-2-oxo-2,3-dihydro-1H-benzo[d]imidazole-5-sulfonamide] |  |  |  | CALP binding in FP competition (CALP): absence of binding

Now from value to compound, other results behind:

Row | Inhibitory activity CALP at 100 μM (CAL PDZ [1]) | IC50 (CAL PDZ [1]) | IC50 (Human-Dab2-DH) | SMILES | other results
7 | −46.33 | 40.5 µM | 20.6 µM | Oc1ccc(N2CCN(c3ncccn3)CC2)cc1 [Example 5, 4-(4-(pyrimidin-2-yl)piperazin-1-yl)phenol] | 
8 | −72.16 | 4.57 µM |  | O=c1[nH]c2ccc(S(=O)(=O)Nc3ccc(O)c4ccccc34)cc2[nH]1 [Example 8, N-(4-hydroxynaphthalen-1-yl)-2-oxo-2,3-dihydro-1H-benzo[d]imidazole-5-sulfonamide] | Surface levels of WT-CFTR (wild-type CFTR): reduce surface levels of WT-CFTR; Adduct size / mass shift observed on CAL PDZ (CAL PDZ [2]): ~160 Da; Covalent modification of CAL PDZ (CAL PDZ [2]): covalently modify CAL PDZ; Attenuation in peptide binding vs unlabeled CAL PDZ (CAL PDZ [3]): ~4 fold; Adduct on CAL PDZ C319A (CAL PDZC319A): no adduct is detected
